Measurements reported in patent US8168651B2, “Protein kinase modulators” (Cylene Pharmaceuticals, Inc., priority 2008, dated 2012).
Like-named read-outs stand apart in the source and are kept apart here.

How the values were obtained:
[1] = biological target: recombinant human CK2 (Homo sapiens (Human), UniProt P68400); test: CK2 assay (cell-free, 33P-ATP filter plate); assay type: biochemical; conditions: for inhibition at 5 µM: read-out: CK2 % inhibition 5 uM, 5 uM
[2] = biological target: recombinant human PIM1 (Homo sapiens (Human), UniProt P11309); test: PIM-1 kinase activity in cell-free in vitro assay; assay type: biochemical; conditions: for inhibition at 0.5 µM: read-out: PIM-1: % inh 500 nM
Chain of recombinant human PIM1 (P11309 whole entry): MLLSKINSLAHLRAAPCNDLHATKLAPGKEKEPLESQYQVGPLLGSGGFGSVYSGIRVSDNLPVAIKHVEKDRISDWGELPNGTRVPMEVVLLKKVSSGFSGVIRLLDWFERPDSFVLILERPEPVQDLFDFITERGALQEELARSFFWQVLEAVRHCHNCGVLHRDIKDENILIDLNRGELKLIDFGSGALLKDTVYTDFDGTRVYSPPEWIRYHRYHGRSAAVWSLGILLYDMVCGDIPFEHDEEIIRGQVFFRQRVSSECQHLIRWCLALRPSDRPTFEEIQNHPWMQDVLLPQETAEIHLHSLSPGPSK

[3] = system: HCT-116 human colorectal carcinoma cells; test: Cell-proliferation assay using Alamar Blue dye; assay type: cell-based;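 further: cells exposed to compound for about 4 days, then Alamar Blue added and dye fluorescence read after about 4 h, compared with medium-only control wells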
[4] = 500 nM compound, cell-free assay
[5] = read-out: CK2 % inhibition 1.0 uM, 1.0 uM
[6] = Homo sapiens, HCT-116, HCT-116, first column, read-out: HCT-116 (uM), cell proliferation modulatory activity
[7] = Homo sapiens, HCT-116, read-out: HCT-116 (uM), cell proliferation modulatory activity, HCT-116, first column
[8] = Homo sapiens, HCT-116, HCT-116, second column, read-out: HCT-116 (uM), cell proliferation modulatory activity
[9] = Homo sapiens, HCT-116, read-out: HCT-116 (uM), cell proliferation modulatory activity, HCT-116, second column
[10] = Homo sapiens, HCT-116, read-out: HCT-116 (uM), cell proliferation modulatory activity, HCT-116, second HCT-116 column (c8)

Chain of recombinant human CK2 (P68400 whole entry): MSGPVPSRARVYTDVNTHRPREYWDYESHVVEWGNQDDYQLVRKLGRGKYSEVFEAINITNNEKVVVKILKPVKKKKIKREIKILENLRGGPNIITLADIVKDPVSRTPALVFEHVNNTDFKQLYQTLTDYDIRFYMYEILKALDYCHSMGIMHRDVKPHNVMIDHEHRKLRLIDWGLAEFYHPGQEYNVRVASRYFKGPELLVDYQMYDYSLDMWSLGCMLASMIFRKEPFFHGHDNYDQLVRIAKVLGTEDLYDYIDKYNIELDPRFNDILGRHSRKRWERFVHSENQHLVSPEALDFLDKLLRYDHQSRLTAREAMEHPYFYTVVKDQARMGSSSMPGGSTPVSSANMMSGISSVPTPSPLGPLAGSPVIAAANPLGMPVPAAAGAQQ
Chain of recombinant human CK2 (P67870 whole entry partner): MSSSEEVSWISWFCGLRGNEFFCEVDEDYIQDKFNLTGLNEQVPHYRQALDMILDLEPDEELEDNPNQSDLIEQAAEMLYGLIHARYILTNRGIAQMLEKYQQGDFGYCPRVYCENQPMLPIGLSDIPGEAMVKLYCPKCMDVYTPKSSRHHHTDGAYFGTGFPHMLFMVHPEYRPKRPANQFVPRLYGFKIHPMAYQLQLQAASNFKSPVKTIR

Compound: CN1CCCCC1CNc1nc2cc(-c3nnn[nH]3)ccc2c2cscc12 (stereo not shown)
- inhibition at 0.5 µM ([1]; 500 nM compound, cell-free assay, read-out: CK2: % inh 500 nM): 57.4%
- inhibition at 0.5 µM [2, 4]: 93.9%
- IC50 ([2]; cell-free assay): 0.054 µM

Compound: O=c1[nH]c2cc(-c3nnn[nH]3)ccc2c2cnccc12 [drawing 568]
- inhibition at 1 µM ([1]; at 1 μM, read-out: CK2 Inhibition): 46%

Compound: N#Cc1ccc2c(c1)nc(Cl)c1ccsc12 [drawing 587]
- inhibition at 5 µM [1]: 63%

Compound: c1ccc(Nc2nc3ccccc3c3sccc23)cc1 [drawing 588]
- inhibition at 5 µM [1]: 0%

Compound: CN(C)CCNc1nc2ccccc2c2sccc12 [drawing 589]
- inhibition at 5 µM [1]: 0%

Compound: O=C(O)c1ccc2c(c1)nc(N1CCOCC1)c1ccsc12 [drawing 590]
- inhibition at 5 µM [1]: 28%

Compound: CN(C)CCNc1nc2cc(C#N)ccc2c2sccc12 [drawing 612]
- inhibition at 1 µM [1, 5]: 0%

Compound: N#Cc1ccc2c(c1)nc(Nc1ccccc1)c1ccsc12 [drawing 614]
- inhibition at 1 µM [1, 5]: 0%

Compound: NC(=O)c1ccc2c(c1)nc(Nc1ccccc1)c1ccsc12 [drawing 615]
- inhibition at 1 µM [1, 5]: 0%

Compound: O=c1[nH]c(-c2ccc3c(c2)nc(Nc2ccccc2)c2ccsc23)no1 [drawing 617]
- inhibition at 1 µM [1, 5]: 0%

Compound: O=C(NCc1ccccc1)c1ccc2c(c1)[nH]c(=O)c1ccsc12 [drawing 671]
- CK2 % inhib @ 10 uM [1]: 14%

Compound: O=C(NCc1ccccc1)c1ccc2c(c1)[nH]c(=O)c1ccsc12 [drawing 672]
- CK2 % inhib @ 10 uM [1]: −1%

Compound: COC(=O)c1ccccc1NC(=O)c1ccc2c(c1)[nH]c(=O)c1ccsc12 [drawing 673]
- CK2 % inhib @ 10 uM [1]: 5%

Compound: COC(=O)c1ccccc1NC(=O)c1ccc2c(c1)[nH]c(=O)c1ccsc12 [drawing 674]
- CK2 % inhib @ 10 uM [1]: −16%

Compound: CC(C)(C)OC(=O)NC1CCN(C(=O)c2ccc3c(c2)[nH]c(=O)c2ccsc23)CC1 [drawing 676]
- CK2 % inhib @ 10 uM [1]: 10%

Compound: CC(C)(C)OC(=O)NC1CCN(C(=O)c2ccc3c(c2)[nH]c(=O)c2ccsc23)CC1 [drawing 677]
- CK2 % inhib @ 10 uM [1]: 1%

Compound: COC(=O)c1ccc2c(c1)nc(Cl)c1ccsc12 [drawing 1375]
- inhibition at 0.5 µM ([2]; 500 nM compound, cell-free): -30%
- IC50 [3, 6]: 10 µM

Compound: O=C(O)c1ccc2c(c1)nc(OCCCO)c1ccccc12 [drawing 1388]
- inhibition at 0.5 µM ([2]; 500 nM compound, cell-free): 1.05%
- IC50 [3, 6]: 10 µM

Compound: COC(=O)c1ccc2c(c1)[nH]c(=O)c1ccncc12 [drawing 1390]
- inhibition at 0.5 µM ([2]; 500 nM compound, cell-free): 0.802%
- IC50 [3, 7]: 10 µM

Compound: CN(C)CCNc1nc2cc(C(=O)O)ccc2c2ccccc12 [drawing 1391]
- inhibition at 0.5 µM ([2]; 500 nM compound, cell-free): 35%
- IC50 [3, 7]: 10 µM

Compound: O=C(O)c1ccc2c(c1)nc(Nc1ccccc1)c1ccccc12 [drawing 1394]
- inhibition at 0.5 µM ([2]; 500 nM compound, cell-free): 28.1%
- IC50 [3, 7]: 10 µM

Compound: N#Cc1ccc2c(c1)nc(Cl)c1ccsc12 [drawing 1398]
- inhibition at 0.5 µM ([2]; 500 nM compound, cell-free): -20.2%
- IC50 [3, 6]: 10 µM

Compound: c1ccc(Nc2nc3ccccc3c3sccc23)cc1 [drawing 1399]
- inhibition at 0.5 µM ([2]; 500 nM compound, cell-free): -22%
- IC50 [3, 6]: 10 µM

Compound: CN(C)CCNc1nc2ccccc2c2sccc12 [drawing 1400]
- inhibition at 0.5 µM ([2]; 500 nM compound, cell-free): -24.2%
- IC50 [3, 6]: 2.3 µM

Compound: O=C(O)c1ccc2c(c1)nc(N1CCOCC1)c1ccsc12 [drawing 1401]
- inhibition at 0.5 µM ([2]; 500 nM compound, cell-free): 35.7%
- IC50 [3, 6]: 10 µM

Compound: CN(C)CCNc1nc2cc(C#N)ccc2c2sccc12 [drawing 1429]
- inhibition at 0.5 µM ([2]; 500 nM compound, cell-free): -3.84%
- IC50 [3, 6]: 0.4 µM

Compound: N#Cc1ccc2c(c1)nc(Nc1ccccc1)c1ccsc12 [drawing 1431]
- inhibition at 0.5 µM ([2]; 500 nM compound, cell-free): -22.3%
- IC50 [3, 6]: 10 µM

Compound: NC(=O)c1ccc2c(c1)nc(Nc1ccccc1)c1ccsc12 [drawing 1432]
- inhibition at 0.5 µM ([2]; 500 nM compound, cell-free): -38.1%
- IC50 [3, 8]: 8.7 µM

Compound: O=c1[nH]c(-c2ccc3c(c2)nc(Nc2ccccc2)c2ccsc23)no1 [drawing 1434]
- inhibition at 0.5 µM ([2]; 500 nM compound, cell-free): 5.78%
- IC50 [3, 8]: 10 µM

Compound: O=c1[nH]c2cc(-c3nnn[nH]3)ccc2c2cnccc12 [drawing 1444]
- inhibition at 0.5 µM ([2]; 500 nM compound, cell-free): 3.3%
- IC50 [3, 8]: 15 µM

Compound: Cc1cc(CNC(=O)c2cccc(Nc3nc4cc(-c5nnn[nH]5)ccc4c4sccc34)c2)no1 [drawing 1507]
- inhibition at 0.5 µM ([2]; 500 nM compound, cell-free): 37.6%
- IC50 [3, 9]: > 10 µM

Compound: Cc1cc(CNC(=O)c2cccc(Nc3nc4cc(-c5nnn[nH]5)ccc4c4sccc34)c2)no1 [drawing 1508]
- PIM-1: % inh 500 nM ([2]; 500 nM compound, cell-free): 55.402%
- IC50 ([2]; cell-free): 0.581 µM
- IC50 ([3]; read-out: HCT-116 (uM), cell proliferation modulatory activity, HCT-116): > 10 µM

Compound: O=C(O)c1ccc2c(c1)nc(NCCc1ccccc1)c1ccncc12 [drawing 1511]
- inhibition at 0.5 µM ([2]; 500 nM compound, cell-free): 80.9%
- IC50 ([2]; cell-free): 0.536 µM
- IC50 [3, 9]: > 10 µM

Compound: O=C(O)c1ccc2c(c1)nc(NCc1ccccc1)c1ccncc12 [drawing 1557]
- inhibition at 0.5 µM ([2]; 500 nM compound, cell-free): 44.4%
- IC50 ([2]; cell-free): 0.675 µM
- IC50 [3, 9]: > 10 µM

Compound: CCOc1ncc2c(n1)c(NC1CC1)nc1cc(C(=O)O)ccc12 [drawing 1615]
- inhibition at 0.5 µM [2, 4]: 11.1%
- IC50 [3, 10]: > 10 µM

Compound: O=C(O)c1ccc2c(c1)nc(NCc1cccnc1)c1nc(NC3CC3)ncc12 [drawing 1625]
- inhibition at 0.5 µM [2, 4]: 26.9%
- IC50 [3, 10]: > 10 µM

Compound: O=C(O)c1ccc2c(c1)nc(NCc1ccccc1)c1nc(NC3CC3)ncc12 [drawing 1626]
- inhibition at 0.5 µM [2, 4]: 25.3%
- IC50 [3, 10]: > 10 µM

Compound: Cc1cc(Nc2ncc3c(n2)c(Nc2ccc(F)c(Cl)c2)nc2cc(C(=O)O)ccc23)[nH]n1 [drawing 1635]
- inhibition at 0.5 µM [2, 4]: 66.1%
- IC50 [3, 10]: > 10 µM

Compound: O=C(O)c1ccc2c(c1)nc(NC1CC1)c1ccncc12 [drawing 1639]
- inhibition at 0.5 µM [2, 4]: 28.1%
- IC50 [3, 10]: > 10 µM

Compound: Nc1ncc2c(n1)c(NC1CC1)nc1cc(C(=O)O)ccc12 [drawing 1644]
- inhibition at 0.5 µM [2, 4]: 60.1%
- IC50 ([2]; cell-free assay): 0.432 µM
- IC50 [3, 10]: > 10 µM
